Like-named read-outs stand apart in the source and are kept apart here.
What was measured:
[1] = system: E. coli DH5α/pLBII-CTX-M15; assay: Broth microdilution MIC assay, engineered strain producing CTX-M15; assay type: cell-based, Escherichia coli; conditions: Escherichia coli, read-out: E. coli DH5α/pLBII-CTX-M15 Microbiological Activity (MIC)
In short: (§1)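 CLSI broth microdilution in cation-supplemented Mueller-Hinton broth, 2-fold compound dilutions, 5×10^5 CFU/mL inoculum, 16-20 h at 37° C, MIC read visually as lowest concentration without growth. E. coli DH5α carries CTX-M15 on pLBII under Lac promoter, or empty pLBII as control.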

[2] = target: T1, PBP3 from Escherichia coli (Escherichia coli, UniProt P0AD68); assay: Fluorescence polarization competition binding assay with Bocillin-FL
T1 construct: made in house
T1 sequence (P0AD68 1-577): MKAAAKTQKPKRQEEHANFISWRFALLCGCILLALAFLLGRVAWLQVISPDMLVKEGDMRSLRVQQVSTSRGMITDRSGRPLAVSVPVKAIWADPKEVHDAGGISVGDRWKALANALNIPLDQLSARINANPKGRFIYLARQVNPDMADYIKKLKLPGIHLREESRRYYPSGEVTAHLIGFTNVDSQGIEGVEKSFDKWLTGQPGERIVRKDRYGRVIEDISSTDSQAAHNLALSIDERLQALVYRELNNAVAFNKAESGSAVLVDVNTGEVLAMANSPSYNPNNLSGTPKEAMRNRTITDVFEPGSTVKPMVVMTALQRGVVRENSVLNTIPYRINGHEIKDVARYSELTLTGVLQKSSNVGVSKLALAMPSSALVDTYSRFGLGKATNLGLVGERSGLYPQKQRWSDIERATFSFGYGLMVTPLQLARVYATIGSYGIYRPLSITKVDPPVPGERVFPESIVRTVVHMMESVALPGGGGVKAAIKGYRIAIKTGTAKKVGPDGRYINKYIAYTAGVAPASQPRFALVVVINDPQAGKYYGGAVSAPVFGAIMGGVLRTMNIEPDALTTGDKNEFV
In short: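 Fluorescence polarization competition assay with Bocillin-FL at 0.1 μM final and purified E. coli PBP3 at 1.5 μM final in 50 mM Hepes pH 8.0, 300 mM NaCl, 5% glycerol. Inhibitor preincubated with PBP3 for 30 min before probe addition; FP then read continuously for 60 min. Potency reported in binned categories.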

E. coli DH5α/pLBII = assay: Broth microdilution MIC assay, empty vector control strain; assay type: cell-based; conditions: Escherichia coli, read-out: E. coli DH5α/pLBII Microbiological Activity (MIC)
In short: as §1

[3] = target: T2, PBP1a from Escherichia coli (Escherichia coli, UniProt P02918); assay: Radioligand competition binding assay with 14C-labeled boronic acid probe (Example 96)
T2 construct: made in house
T2 sequence (P02918 whole entry): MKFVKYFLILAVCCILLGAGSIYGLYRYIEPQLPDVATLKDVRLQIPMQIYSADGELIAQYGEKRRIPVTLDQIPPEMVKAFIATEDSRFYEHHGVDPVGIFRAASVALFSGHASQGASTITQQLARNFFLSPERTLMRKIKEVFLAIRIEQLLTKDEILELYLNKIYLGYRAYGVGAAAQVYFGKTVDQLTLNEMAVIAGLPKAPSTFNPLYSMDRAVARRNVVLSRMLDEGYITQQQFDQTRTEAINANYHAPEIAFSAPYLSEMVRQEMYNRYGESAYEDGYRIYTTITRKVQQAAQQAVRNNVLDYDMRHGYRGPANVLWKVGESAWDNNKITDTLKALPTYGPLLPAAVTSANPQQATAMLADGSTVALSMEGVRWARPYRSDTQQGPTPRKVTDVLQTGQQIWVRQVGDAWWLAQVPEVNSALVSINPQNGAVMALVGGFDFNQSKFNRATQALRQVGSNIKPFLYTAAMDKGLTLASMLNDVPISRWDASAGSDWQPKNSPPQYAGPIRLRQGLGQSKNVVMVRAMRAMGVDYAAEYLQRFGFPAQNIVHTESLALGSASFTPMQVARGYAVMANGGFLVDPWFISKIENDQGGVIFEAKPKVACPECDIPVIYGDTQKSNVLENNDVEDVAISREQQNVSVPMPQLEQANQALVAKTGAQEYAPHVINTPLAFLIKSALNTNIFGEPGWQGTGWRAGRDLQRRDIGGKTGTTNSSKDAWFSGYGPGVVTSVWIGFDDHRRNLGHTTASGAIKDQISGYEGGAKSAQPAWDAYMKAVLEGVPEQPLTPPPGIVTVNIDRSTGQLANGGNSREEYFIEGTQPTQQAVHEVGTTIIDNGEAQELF
Text: (§2) To determine the ability of boronic acid-based test PBP inhibitors to bind Penicillin Binding Proteins (PBPs), a radio-labelled boronic acid PBP inhibitor (Example 96) was used in competition binding assays to determine boronic acid PBP inhibitor binding to PBP1a or PBP1b from Escherichia coli. PBP1a and PBP1b were purified as described previously (Bertsche, U.; et al., J. Biol. Chem. 2005, 280 (45), 38096-38101; Born, P.; et al., J Biol. Chem. 2006. 281 (37), 26985-26993). To establish assay conditions for competition binding, an enzyme titration/saturation binding experiment was performed. Saturation binding was performed in a buffer comprised of 20 mM Tris (pH 7.5), 500 mM NaCl and 0.1% (v/v) TritonX-100, with PBP1a/PBP1b at a final concentration of 0.1 μM and 96 at final concentrations ranging from 0-100 μM. Mixtures were incubated for 60 minutes, then applied to Zeba Spin Desalting columns or plates (ThermoFisher Scientific) and centrifuged at 1000-1500×g for 2 minutes. The flow through, containing PBP bound with 96, was recovered and 100 μL mixed with 5 mL of UltimaGold liquid scintillation cocktail (Perkin Elmer), and the radioactivity counted using a Beckman Coulter LS 6500 Multipurpose scintillation counter. PBP binding of 96 approached saturation at 20 μM of ^14C-labeled probe. The competition binding assay was validated using the beta-lactam ampicillin, with 96 at a final concentration of 20 μM, PBP1a/PBP1b at a final concentration of 0.1 μM. PBP1a/PBP1b was incubated with ampicillin in a 96-well microplate for 60 minutes, then 96 was added and the mixtures incubated for an additional 60 minutes. The mixtures were then applied to Zeba Spin desalting plates and centrifuged at 1000×g for 2 minutes. The flow through was recovered and 100 μl mixed with 5 ml of UltimaGold liquid scintillation cocktail and the radioactivity counted. Ampicillin inhibited binding of 96 with an EC50 (the concentration of inhibitor required to reduce binding of 96 by 50%) of less than 0.5 μM. Binding assays with boronic acid PBP inhibitors were performed in an identical fashion. The potency of boronic acid PBP inhibitors was reported as the EC50 value.
(§3) Representative results are shown in Table 5, where A represents a potency of >100 μM, B represents a potency between 10 μM and 100 μM inclusive, and C represents a potency of <10 μM. NT=Not Tested.

[4] = target: T3, PBP1b from Escherichia coli (Escherichia coli, UniProt P02919); assay: as above
T3 construct: made in house
T3 sequence (P02919 whole entry): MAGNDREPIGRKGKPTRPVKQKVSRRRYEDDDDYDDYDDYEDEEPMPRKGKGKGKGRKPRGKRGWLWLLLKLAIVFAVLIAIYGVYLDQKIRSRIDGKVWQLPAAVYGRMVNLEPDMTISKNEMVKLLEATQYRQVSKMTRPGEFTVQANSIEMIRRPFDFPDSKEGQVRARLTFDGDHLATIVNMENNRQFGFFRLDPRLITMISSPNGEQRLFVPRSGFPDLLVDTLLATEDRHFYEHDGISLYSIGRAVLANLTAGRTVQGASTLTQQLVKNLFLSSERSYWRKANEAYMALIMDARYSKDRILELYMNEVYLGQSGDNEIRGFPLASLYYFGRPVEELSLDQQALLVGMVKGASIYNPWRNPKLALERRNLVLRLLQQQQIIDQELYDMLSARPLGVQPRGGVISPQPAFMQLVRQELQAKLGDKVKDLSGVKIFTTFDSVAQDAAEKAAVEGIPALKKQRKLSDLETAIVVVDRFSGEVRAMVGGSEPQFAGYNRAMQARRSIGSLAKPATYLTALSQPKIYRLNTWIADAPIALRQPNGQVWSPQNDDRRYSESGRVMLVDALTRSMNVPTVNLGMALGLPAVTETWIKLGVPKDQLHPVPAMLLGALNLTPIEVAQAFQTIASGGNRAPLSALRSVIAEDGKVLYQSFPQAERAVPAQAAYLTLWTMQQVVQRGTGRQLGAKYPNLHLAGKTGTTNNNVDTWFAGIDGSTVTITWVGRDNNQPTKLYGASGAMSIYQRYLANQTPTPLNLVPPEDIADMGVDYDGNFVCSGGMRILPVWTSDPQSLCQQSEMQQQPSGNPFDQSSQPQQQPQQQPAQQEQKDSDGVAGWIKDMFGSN
Text: as §2, §3

[5] = system: hyper-permeable E. coli 901C; assay: Broth microdilution MIC assay; assay type: cell-based; conditions: Escherichia coli, read-out: E. coli 901C MIC
In short: (§4)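 MIC taken by eye as the lowest compound concentration showing no growth after 16-20 hours at 37° C. Cultures grown 3-5 h in cation-supplemented Mueller-Hinton broth were added to 2-fold compound dilution series at a starting density of 5×10^5 CFU/mL, following CLSI methods.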

S. aureus ATCC 29213 = assay: Broth microdilution MIC assay; assay type: cell-based; conditions: Staphylococcus aureus, ATCC29213; broth microdilution, 16-20 hours at 37° C.; read-out: S. aureus 29213 MIC
In short: as §4

E. coli PBP3 = target: T4, E. coli PBP3 (Escherichia coli, UniProt P0AD68); assay: Bocillin FL competition binding assay (SDS-PAGE gel, membrane PBPs); conditions: 15 min. pre-incubation, membrane protein extracts, SDS-PAGE fluorescence scan
T4 construct: 100 μg's of total membrane protein extracts containing PBPs; endogenous in cells; host or cells: Escherichia coli K12 membrane fraction
T4 sequence (P0AD68 1-577): as the sequence (P0AD68 1-577) above
Experimental: (§5) To determine the ability of test compounds to bind Penicillin Binding Proteins (PBPs), a competition binding assay using Bocillin FL (fluorescent derivative of penicillin V) was adapted from the classical method used to assess PBP potency of beta-lactams.
(§6) Penicillin binding proteins were isolated from Escherichia coli K12 by growth of Escherichia coli K12 from a single colony in 4 L of Luria-Bertani (LB) broth at 35° C. and 250 rpm to an OD600 nm of 0.5. The cells were harvested by centrifugation at 7,000×g for 10 min. at 4° C. Cells were resuspended and washed in 50 mM potassium phosphate pH 7.5. The cells were re-suspended in sonication buffer [50 mM Tris-HCl pH 7.5, 1 mM MgCl2, 1 mM beta-mercaptoethanol, and 5 μg/mL DNAse I] and sonicated by 4 passes of 30 seconds at 45 W on ice. The sample was clarified by centrifugation at 3,000×g to remove cell debris and unbroken cells and supernatant containing the membrane proteins was retained. The membrane proteins including the PBPs were further purified from soluble constituents by an ultracentrifugation step at 100,000×g for 30 min. at 4° C. The membrane proteins are washed twice with 10 mM sodium phosphate pH 7, resuspended in a volume of 5 mL, quantitated by BCA assay, adjusted to […] and frozen at −80° C. until use.
(§7) The adapted Bocillin FL competition binding assay described herein incorporates a 15 min. pre-incubation of test compound with isolated PBPs to attempt to balance the difference in mechanism of inhibition between beta-lactams (largely irreversible covalent bond to active site Serine) and the boron-containing PBP inhibitor test compounds (reversible covalent bond to active site Serine). Briefly, 50 μL reactions consisted of 100 μg's of total membrane protein extracts containing PBPs incubated with a dilution series of test compound ranging from 0.005 μg/mL to 2,480 μg/mL in 10 mM sodium phosphate pH7 containing 350 mM NaCl. Thirty minute reactions at 35° C. were initiated by addition of […] Bocillin FL, quenched by addition of SDS-PAGE loading buffer containing sodium dodecyl sulfate (SDS) and heated for 15 minutes at 95° C. to denature proteins in preparation for SDS-polyacrylamide gel electrophoresis. The Bocillin FL labeled PBPs are then separated by SDS-PAGE in Novex NuPage 10% Bis-Tris pre-cast gels (Invitrogen). The SDS-PAGE gel, post-electrophoresis, is then washed in water to remove excess SDS for 10 minutes at room temperature and placed on the scanning bed of a GE Healthcare/Amersham Biosciences Storm 860 fluorescence scanner. […] Effective PBP inhibitors are detected by a reduction in Bocillin FL labeling of the particular PBP over the dose range of test compound in a dose-responsive manner. […]

E. coli K12 PBP1a = target: T5, E. coli K12 PBP1a (Escherichia coli, UniProt P02918); assay: as above; conditions: 15 min. pre-incubation, membrane protein extracts, SDS-PAGE fluorescence scan
T5 construct: 100 μg's of total membrane protein extracts containing PBPs; endogenous in cells; host or cells: Escherichia coli K12 membrane fraction
T5 sequence (P02918 whole entry): as the sequence (P02918 whole entry) above
Experimental: as §5, §6, §7

E. coli PBP1b = assay: as above; set-up: species or system Escherichia coli; conditions: 15 min. pre-incubation, membrane protein extracts, SDS-PAGE fluorescence scan
Experimental: as §5
Penicillin binding proteins were isolated from Escherichia coli K12 by growth of Escherichia coli K12 from a single colony in 4 L of Luria-Bertani (LB) broth at 35° C. and 250 rpm to an OD600 nm of 0.5. The cells were harvested by centrifugation at 7,000×g for 10 min. at 4° C. Cells were resuspended and washed in 50 mM potassium phosphate pH 7.5. […] The membrane proteins are washed twice with 10 mM sodium phosphate pH 7, resuspended in a volume of 5 mL, quantitated by BCA assay, adjusted to 10 μg/mL and frozen at −80° C. until use.
The adapted Bocillin FL competition binding assay described herein incorporates a 15 min. pre-incubation of test compound with isolated PBPs to attempt to balance the difference in mechanism of inhibition between beta-lactams (largely irreversible covalent bond to active site Serine) and the boron-containing PBP inhibitor test compounds (reversible covalent bond to active site Serine). […] The SDS-PAGE gel, post-electrophoresis, is then washed in water to remove excess SDS for 10 minutes at room temperature and placed on the scanning bed of a GE Healthcare/Amersham Biosciences Storm 860 fluorescence scanner. […]

[6] = target: T1, PBP3 from Escherichia coli; assay: Competition binding assay using Bodipy-FL boronic acid probe (Example 95); conditions: PBP3 3 μM, read-out: E. coli K12 PBP3 Potency
Experimental: PBP3 from Escherichia coli was cloned and purified as described previously (King, D. T, et al., ACS Infectious Diseases 2015, 1, 175-184). To establish assay conditions for competition binding, an enzyme titration/saturation binding experiment was performed. […] FP was measured immediately upon addition of PBP3 (Ex, Em), using a Cytation3 (BioTek) microplate reader and measured continuously for 60 minutes. […] The competition binding assay was validated using the beta-lactam ampicillin, with Bocillin-FL at a final concentration of 0.1 μM, PBP3 at a final concentration of 1.5 μM and concentrations of ampicillin from 0-1000 μM. […] Binding assays for boronic acid PBP inhibitors were performed in an identical fashion. Representative results are shown in Table 3, where A represents a potency of >500 μM, B represents a potency between 30 μM and 500 μM inclusive, and C represents a potency of <30 μM. NT=Not Tested.
The method described in Example II was adapted to use a Bodipy-labeled boronic acid PBP inhibitor (Example 13 or Example 95) to assess PBP3 potency of boronic acid PBP inhibitors. The method is identical to that described in Example II for the Bocillin-FL competition binding assay, with the following exceptions: PBP3 from Escherichia coli is used at a final concentration of 3 μM. […]

[7] = 14C-labeled probe 96 at 20 μM, PBP 0.1 μM, read-out: E. coli K12 PBP1a EC50
[8] = 14C-labeled probe 96 at 20 μM, PBP 0.1 μM, read-out: E. coli K12 PBP1b EC50
[9] = PBP1a/PBP1b 0.1 μM, 96 at 20 μM, assay validation, read-out: EC50 (concentration of inhibitor required to reduce binding of 96 by 50%)

## Nc1nc(C(NS(N)(=O)=O)C(=O)N[C@H]2Cc3cccc(C(=O)O)c3OB2O)cs1 (stereo partly drawn) [Example 26, (3R)-3-(2-(2-aminothiazol-4-yl)-2-(sulfamoylamino)acetamido)-2-hydroxy-3,4-dihydro-2H-benzo[e][1,2]oxaborinine-8-carboxylic acid]
[1]
  MIC: 32 to 64 µg/mL
[2]
  EC50: 30 to 500 µM
E. coli DH5α/pLBII
  MIC: 32 to 64 µg/mL
[3]; [7]
  EC50: < 10 µM
[4]; [8]
  EC50: 10 to 100 µM
[5]
  MIC: < 64 µg/mL
S. aureus ATCC 29213
  MIC: > 128 µg/mL

## N[C@H](C(=O)N[C@H]1Cc2cccc(C(=O)O)c2OB1O)c1ccccc1 [Example 3, (R)-3-((S)-2-amino-2-phenylacetamido)-2-hydroxy-3,4-dihydro-2H-benzo[e][1,2]oxaborinine-8-carboxylic acid]
[1]
  MIC: 128 to 256 µg/mL
E. coli DH5α/pLBII
  MIC: 128 to 256 µg/mL
E. coli PBP3
  E. coli PBP3 Potency: A (A represents a potency of >1000 μg/mL)
E. coli K12 PBP1a
  E. coliK12 PBP1a Potency: B (B represents a potency between 64 and 1000 μg/mL inclusive)
[5]
  MIC: 64 to 128 µg/mL
S. aureus ATCC 29213
  MIC: > 128 µg/mL
E. coli PBP1b
  E. coli PBP1b Potency: A (A represents a potency of >1000 μg/mL)

## CC1(C)S[C@@H]2[C@H](NC(=O)[C@H](N)c3ccccc3)C(=O)N2[C@H]1C(=O)O [ampicillin, reference compound]
[2]
  EC50: 1.4 µM
[6]
  EC50: < 10 µM
[3]; [7]
  EC50: < 10 µM
[3]; [9]
  EC50: < 0.5 µM
[4]; [8]
  EC50: < 10 µM
[4]; [9]
  EC50: < 0.5 µM

## CCN1CCN(C(=O)N[C@H](C)C(=O)N[C@H]2Cc3cccc(C(=O)O)c3OB2O)C(=O)C1=O [Example 34, (R)-3-((R)-2-(4-Ethyl-2,3-dioxopiperazine-1-carboxamido)propanamido)-2-hydroxy-3,4-dihydro-2H-benzo[e][1,2]oxaborinine-8-carboxylic acid]
[1]
  MIC: 128 to 256 µg/mL
[2]
  EC50: 30 to 500 µM
E. coli DH5α/pLBII
  MIC: 128 to 256 µg/mL
[3]; [7]
  EC50: 10 to 100 µM
[4]; [8]
  EC50: < 10 µM
[5]
  MIC: < 64 µg/mL
S. aureus ATCC 29213
  MIC: > 128 µg/mL

Source: US11332485B2, “Penicillin-binding protein inhibitors” (priority 2017, dated 2022)
